The record followed here is patent US20220289679A1, “HETEROCYCLIC COMPOUND” (Takeda Pharmaceutical Company Limited, priority 2019, published 2022).

The structures appear in SMILES notation.

In the test the target is T1, human GCS (glucosylceramide synthase) (Homo sapiens, UniProt Q16739).
T1 construct: made in house; host or cells: Expi293F cells (transient expression; microsome fraction)
T1 sequence (Q16739 1-394): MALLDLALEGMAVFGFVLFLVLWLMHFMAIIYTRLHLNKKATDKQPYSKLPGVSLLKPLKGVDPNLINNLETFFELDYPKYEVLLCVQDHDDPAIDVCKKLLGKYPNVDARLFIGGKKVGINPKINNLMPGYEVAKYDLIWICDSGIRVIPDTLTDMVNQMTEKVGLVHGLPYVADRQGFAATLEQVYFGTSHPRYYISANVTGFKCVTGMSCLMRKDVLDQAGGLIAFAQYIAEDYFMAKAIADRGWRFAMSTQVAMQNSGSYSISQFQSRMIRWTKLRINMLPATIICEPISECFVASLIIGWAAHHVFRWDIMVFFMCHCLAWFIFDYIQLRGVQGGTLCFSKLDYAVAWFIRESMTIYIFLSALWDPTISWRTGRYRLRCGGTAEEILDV
In words: Glucosylceramide Synthase (GCS) Assay. It counts as biochemical. To be noted: test compound 10 μM; microsome fraction of Expi293F cells expressing human GCS; 1.7 μM UDP-glucose, 3 μM C8 ceramide; room temperature 60 min; C8 glucosylceramide by Rapidfire MS/MS; read-out: GCS enzyme inhibitory rate at 10 μM (%). Put shortly:
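Test compounds were run at a final 10 μM against liposomal C8 ceramide (3 μM) and UDP-glucose at its Km (1.7 μM). Human GCS came as microsomes from transfected Expi293F cells, incubated 60 min at room temperature, pH 7.5. Product measured by RapidFire MS/MS; 0% and 100% inhibition were DMSO and no-enzyme wells.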
As for `O=C(Nc1ccc(C(O)(C(F)F)C(F)F)nc1)c1cccn(-c2cc(F)c(F)cc2OCC(F)(F)F)c1=O` [Example 118, 1-[4,5-difluoro-2-(2,2,2-trifluoroethoxy)phenyl]-2-oxo-N-[6-(1,1,3,3-tetrafluoro-2-hydroxypropan-2-yl)pyridin-3-yl]-1,2-dihydropyridine-3-carboxamide], the inhibition at 10 µM stood at 97%. With `COc1cc(F)ccc1-n1nccc(C(=O)Nc2ccc(Oc3ccccc3)cc2)c1=O` [Example 18, 2-(4-fluoro-2-methoxyphenyl)-3-oxo-N-(4-phenoxyphenyl)-2,3-dihydropyridazine-4-carboxamide], the inhibition at 10 µM was found to be 76%.

As to `CC(C)(O)c1ccc(NC(=O)c2ccnn(-c3ccc(F)cc3OCC(F)(F)F)c2=O)cn1` [Example 112, 2-[4-fluoro-2-(2,2,2-trifluoroethoxy)phenyl]-N-[6-(2-hydroxypropan-2-yl)pyridin-3-yl]-3-oxo-2,3-dihydropyridazine-4-carboxamide], the inhibition at 10 µM came out at 94%. Next, `O=C(Nc1ccc(C(O)(C(F)F)C(F)F)nc1)c1cn(C2CC2)nc(-c2ccccc2OCC(F)F)c1=O` [Example 189, 2-cyclopropyl-6-[2-(2,2-difluoroethoxy)phenyl]-5-oxo-N-[6-(1,1,3,3-tetrafluoro-2-hydroxypropan-2-yl)pyridin-3-yl]-2,5-dihydropyridazine-4-carboxamide]: 100%. Next, `O=C(Nc1ccc(F)cc1F)c1cn(C2COC2)nc(-c2ccccc2OCC(F)F)c1=O` [Example 182, 6-[2-(2,2-difluoroethoxy)phenyl]-N-(2,4-difluorophenyl)-2-(oxetan-3-yl)-5-oxo-2,5-dihydropyridazine-4-carboxamide]: 90%; `O=C(Nc1ccc(C(O)(C(F)F)C(F)F)nc1)c1cccn(-c2cc(F)ccc2OCC(F)(F)F)c1=O` [Example 124, 1-[5-fluoro-2-(2,2,2-trifluoroethoxy)phenyl]-2-oxo-N-[6-(1,1,3,3-tetrafluoro-2-hydroxypropan-2-yl)pyridin-3-yl]-1,2-dihydropyridine-3-carboxamide]: 99%; `CC(C)(O)c1ccc(NC(=O)c2ccnn(-c3ccccc3OCC(F)F)c2=O)cc1` [Example 133, 2-[2-(2,2-difluoroethoxy)phenyl]-N-[4-(2-hydroxypropan-2-yl)phenyl]-3-oxo-2,3-dihydropyridazine-4-carboxamide]: 100%. Next, `O=C(Nc1cnn(CC(F)(F)F)c1)c1cccn(-c2ccc(F)cc2OCC(F)(F)F)c1=O` [Example 48, 1-[4-fluoro-2-(2,2,2-trifluoroethoxy)phenyl]-2-oxo-N-[1-(2,2,2-trifluoroethyl)-1H-pyrazol-4-yl]-1,2-dihydropyridine-3-carboxamide]: 70%; `CC(C)(O)c1ccc(NC(=O)c2ccnn(-c3ccccc3OCC(F)F)c2=O)cn1` [Example 134, 2-[2-(2,2-difluoroethoxy)phenyl]-N-[6-(2-hydroxypropan-2-yl)pyridin-3-yl]-3-oxo-2,3-dihydropyridazine-4-carboxamide]: 94%. Consider `N#CCc1ccc(NC(=O)c2cccn(-c3ccccc3OCC(F)(F)F)c2=O)cn1` [Example 86, N-[6-(cyanomethyl)pyridin-3-yl]-2-oxo-1-[2-(2,2,2-trifluoroethoxy)phenyl]-1,2-dihydropyridine-3-carboxamide], for which the inhibition at 10 µM is 88%.

In the case of `CC(C)(O)c1ccc(NC(=O)c2cccn(-c3cccnc3OCC(F)(F)F)c2=O)cc1` [Example 114, N-[4-(2-hydroxypropan-2-yl)phenyl]-2-oxo-2′-(2,2,2-trifluoroethoxy)-2H-[1,3′-bipyridine]-3-carboxamide], the inhibition at 10 µM stood at 96%.

Consider `O=C(Nc1ccc(OCC(F)(F)F)nc1)c1cccn(-c2ncncc2OCC(F)(F)F)c1=O` [Example 110, 2-oxo-N-[6-(2,2,2-trifluoroethoxy)pyridin-3-yl]-1-[5-(2,2,2-trifluoroethoxy)pyrimidin-4-yl]-1,2-dihydropyridine-3-carboxamide], for which the inhibition at 10 µM was determined as 99%.
